# In patent US20060122181A1, “Heteroaromatic pentacyclic compound and medicinal use thereof” (Japan Tobacco Inc., priority 2003, published 2006):
row,melting point,Compound
1,143 to 145 °C,CCCC(CCC)c1ccc(OCc2ccc(-c3csc(CN(CC(=O)O)C(=O)COc4ccccc4)n3)cc2)cc1 [Example 1-129]
2,170 to 172 °C,CCCC(CCC)c1ccc(OCc2ccc(-c3csc(CN(CC(=O)O)C(=O)COc4ccc(C)cc4)n3)cc2)cc1 [Example 1-130]
3,158 to 160 °C,CCCC(CCC)c1ccc(N(Cc2ccc(-c3csc(CN(CC(=O)O)C(=O)COCc4ccccc4)n3)cc2)C(C)C)cc1 [Example 1-134]
4,192 to 194 °C,CCCC(CCC)c1ccc(OCc2ccc(-c3csc(CN(CC(=O)O)C(=O)COc4ccc(C(C)C)cc4)n3)cc2)cc1 [Example 1-135]
5,98 to 100 °C,CCCC(CCC)c1ccc(N(Cc2ccc3nc(-c4csc(CN(CC(=O)O)Cc5nc(C(C)(C)C)cs5)n4)oc3c2)C(C)C)cc1 [Example 1-138]
6,127 to 133 °C,CCCC(CCC)c1ccc(N(Cc2ccc3nc(-c4csc(CN(CC(=O)O)Cc5nc6ccccc6[nH]5)n4)oc3c2)C(C)C)cc1 [Example 1-139]
7,135 to 138 °C,CCCC(CCC)c1ccc(N(Cc2ccc3nc(-c4csc(COc5cncc(C(=O)O)c5)n4)oc3c2)C(C)C)cc1 [Example 1-140]
8,123 to 125 °C,CCCC(CCC)c1ccc(OCc2ccc(-c3csc(CN(C)c4cccc(C(=O)O)n4)n3)cc2)cc1 [Example 1-143]
9,156 to 157 °C,CCCC(CCC)c1ccc(N(Cc2ccc(-c3csc(CN(CC(=O)O)Cc4nc(C)c(C)s4)n3)cc2)C(C)C)cc1 [Example 1-146]
10,149 to 151 °C,CCCC(CC)c1ccc(N(Cc2ccc(-c3csc(CN4CCC(C(=O)O)CC4)n3)cc2)C(C)C)cc1 (stereo not drawn) [Example 1-152]
11,232 to 234 °C,CCC(CC)c1ccc(N(Cc2ccc(-c3csc(CN4CCN(c5ccc(C(=O)O)cc5)CC4)n3)cc2)C(C)C)cc1 [Example 1-154]
12,113 to 116 °C,CCCC(CCC)c1ccc2c(c1)nc(-c1csc(COc3ccc(C(=O)O)cc3)n1)n2Cc1cccc(C)n1 [Example 1-159]
13,164 to 166 °C,CCCC(CCC)c1ccc(OCc2ccc(-c3csc(CNC(=O)c4ccc(C(=O)O)cn4)n3)cc2)cc1 [Example 1-163]
14,170 to 172 °C,CCCC(CCC)c1ccc(COc2ccc(-c3csc(CN4CCC(c5ccccc5C(=O)O)CC4)n3)cc2)cc1 [Example 1-164]
15,111 to 115 °C,CCCC(CCC)c1ccc(Cn2cc(-c3csc(CN4CCC(C(=O)O)CC4)n3)c3ccccc32)cc1 [Example 1-165]
16,189.2 to 190.3 °C,CCCC(CCC)c1ccc(Cn2c(-c3csc(CN4CCc5ccc(C(=O)O)cc5C4)n3)nc3ccccc32)cc1 [Example 1-169]
17,179.8 to 181.2 °C,CCCC(CCC)c1ccc(Cn2c(-c3csc(CN4CCN(c5cccc(C(=O)O)c5)CC4)n3)nc3ccccc32)cc1 [Example 1-170]
18,208.5 to 209.8 °C,CCCC(CCC)c1ccc(Cn2c(-c3csc(CN4CCC(c5ccc(C(=O)O)cc5)CC4)n3)nc3ccccc32)cc1 [Example 1-171]
19,197 to 199 °C,O=C(O)c1cccc(C2CCN(Cc3nc(-c4ccc(OCc5ccc(Cl)c(Cl)c5)cc4)cs3)CC2)c1 [Example 1-173]
20,222 to 228 °C,O=C(O)c1cccc(C2CCN(Cc3nc(-c4ccc(OCc5cc(C(F)(F)F)cc(C(F)(F)F)c5)cc4)cs3)CC2)c1 [Example 1-174]
21,222 to 225 °C,CCCCOc1ccc(COc2ccc(-c3csc(CN4CCC(c5cccc(C(=O)O)c5)CC4)n3)cc2)cc1 [Example 1-175]

row,melting point,Compound
1,141 to 143 °C,CCCC(CCC)c1ccc(OCc2ccc(-c3csc(Cn4nc(C)cc4C(=O)O)n3)cc2)cc1 [Example 1-176]
2,185 to 194 °C,CCCC(CCC)c1ccc(OCc2ccc(-c3csc(Cn4nc(C(=O)O)cc4C)n3)cc2)cc1 [Example 1-177]
3,123 to 125 °C,CCCC(CCC)c1ccc(OCc2ccc(-c3csc(Cn4nc(C(C)(C)C)cc4C(=O)O)n3)cc2)cc1 [Example 1-179]
4,105 to 107 °C,CCCC(CCC)c1ccc(Cn2cc(-c3csc(CN4C[C@H](O)C[C@H]4C(=O)O)n3)c3ccccc32)cc1 [Example 1-180]
5,101 to 103 °C,CCCC(CCC)c1ccc(Cn2c(-c3ccccc3)c(-c3csc(CN4CCC(C(=O)O)CC4)n3)c3ccccc32)cc1 [Example 1-183]
6,205 to 210 °C,Cc1ccc(COc2ccc(-c3csc(CN4CCC(c5cccc(C(=O)O)c5)CC4)n3)cc2)cc1[N+](=O)[O-] [Example 1-184]
7,141 to 143.2 °C,CC(C)c1ccc(Cn2c(-c3csc(CN4CCc5ccc(C(=O)O)cc5C4)n3)nc3ccc(N4CCOCC4)cc32)cc1 [Example 1-185]
8,128.5 to 131.5 °C,CC(C)c1ccc(Cn2c(-c3csc(CN4CCN(c5cccc(C(=O)O)c5)CC4)n3)nc3ccc(N4CCOCC4)cc32)cc1 [Example 1-186]
9,204 to 207 °C,CCCC(CCC)c1ccc(COc2ccc(-c3csc(COc4ccc(C(=O)O)cc4)n3)cc2)cc1 [Example 3-2]
10,117 to 118 °C,CCCC(CCC)c1ccc(COc2ccc(-c3csc(CSc4ccc(C(=O)O)cc4)n3)cc2)cc1 [Example 3-3]
11,130 to 132 °C,CCCC(CCC)c1ccc(COc2ccc(C)cc2-c2csc(CN(C)S(=O)(=O)c3ccc(C(=O)O)cc3)n2)cc1 [Example 3-6]
12,184 to 187 °C,CCCC(CCC)c1ccc(COc2ccc(C)cc2-c2csc(CN(C)c3ccc(C(=O)O)cc3)n2)cc1 [Example 3-7]
13,168 to 170 °C,Cc1ccc(OCc2ccc(C(F)(F)F)cc2)c(-c2csc(CN(CC(=O)O)Cc3ccccc3)n2)c1 [Example 3-8]
14,144 to 146 °C,CCC(CC)c1ccc(COc2ccc(-c3csc(CN(CC(=O)O)Cc4ccccc4)n3)cc2)cc1 [Example 3-11]
15,155 to 157 °C,CC(C)Cc1ccc(COc2ccc(C(C)(C)C)cc2-c2csc(CN(CC(=O)O)Cc3ccccc3)n2)cc1 [Example 3-12]
16,130 to 131 °C,CCCC(CCC)c1ccc(COc2ccc(Cl)cc2-c2csc(CN(CC(=O)O)Cc3ccccc3)n2)cc1 [Example 3-13]
17,136 to 138 °C,CCC(CC)c1ccc(COc2ccc(-c3csc(CN(CC(=O)O)Cc4ccc(C(F)(F)F)cc4)n3)cc2)cc1 [Example 3-16]
18,154 to 157 °C,CCC(CC)c1ccc(COc2ccc(-c3csc(CN(CC(=O)O)Cc4ccc(Cl)cc4)n3)cc2)cc1 [Example 3-17]
19,114 to 119 °C,CCC(CC)c1ccc(COc2ccc(-c3csc(CN(CC(=O)O)Cc4cc(C)cc(C)c4)n3)cc2)cc1 [Example 3-18]
20,155 to 156 °C,CCCC(CCC)c1ccc(COc2ccc(-c3csc(CN(CC(=O)O)Cc4ccccn4)n3)cc2)cc1 [Example 3-19]
21,156 to 157 °C,CCC(CC)c1ccc(COc2ccc(-c3csc(CN(CC(=O)O)Cc4ccccn4)n3)cc2)cc1 [Example 3-20]

row,melting point,Compound
1,141 to 144 °C,CCCC(CCC)c1ccc(COc2ccc(-c3csc(CN(CC(=O)O)C(=O)c4ccccc4)n3)cc2)cc1 [Example 3-22]
2,142 to 144 °C,CCC(CC)c1ccc(COc2ccc(-c3csc(CN(CC(=O)O)C(=O)c4ccc(C)cc4)n3)cc2)cc1 [Example 3-23]
3,99 to 101 °C,CCCC(CCC)c1ccc(COc2ccc(-c3csc(CN(CC(=O)O)C(=O)c4ccc(OC)cc4)n3)cc2)cc1 [Example 3-24]
4,159 to 160 °C,CN(Cc1ccc(CC(C)(C)C)cc1)c1ccc(-c2csc(CN(CC(=O)O)Cc3ccccc3)n2)cc1 [Example 3-27]
5,192 to 195 °C,CN(C[C@H]1CC[C@H](c2ccc(C(C)(C)C)cc2)CC1)c1ccc(-c2csc(CN(CC(=O)O)Cc3ccccc3)n2)cc1 [Example 3-28]
6,133 to 134 °C,CN(CCc1ccc(CC(C)(C)C)cc1)c1ccc(-c2csc(CN(CC(=O)O)Cc3ccccc3)n2)cc1 [Example 3-31]
7,146 to 147 °C,CN(Cc1ccc(C2CCC(F)CC2)cc1)c1ccc(-c2csc(CN(CC(=O)O)Cc3ccccc3)n2)cc1 (stereo not drawn) [Example 3-33]
8,167 to 170 °C,CN(Cc1ccc(-c2ccccc2)cc1)c1ccc(-c2csc(CN(CC(=O)O)Cc3ccccc3)n2)cc1 [Example 3-37]
9,149 to 151 °C,CC(C)Cc1ccc(CN(C)c2ccc(-c3csc(CN(CC(=O)O)Cc4ccccc4)n3)cc2)cc1 [Example 3-39]
10,143 °C,CN(Cc1ccc(SCC(C)(C)C)cc1)c1ccc(-c2csc(CN(CC(=O)O)Cc3ccccc3)n2)cc1 [Example 3-41]
11,122 °C,CC(C)CCSc1ccc(CN(C)c2ccc(-c3csc(CN(CC(=O)O)Cc4ccccc4)n3)cc2)cc1 [Example 3-42]
12,74 to 78 °C,CCN(Cc1ccc(C(C)C)cc1)c1ccc(-c2csc(CN(CC(=O)O)Cc3ccc(C(C)C)cc3)n2)cc1 [Example 3-44]
13,77 to 82 °C,CC(C)c1ccc(CN(CC(=O)O)Cc2nc(-c3ccc(N(Cc4ccc(C(C)C)cc4)C(C)C)cc3)cs2)cc1 [Example 3-45]
14,82 to 87 °C,CC(C)c1ccc(CN(c2ccc(-c3csc(CN(CC(=O)O)Cc4ccc(C(C)(C)C)cc4)n3)cc2)C(C)C)cc1 [Example 3-46]
15,153 to 157 °C,CC(C)Cc1ccc(CN(C)c2ccc(-c3csc(CN(CC(=O)O)Cc4ccc(Cl)cc4)n3)cc2)cc1 [Example 3-47]
16,137 to 140 °C,CCCC(CCC)c1ccc(CN(CC(=O)O)Cc2nc(-c3ccc(N(C)Cc4ccccc4)cc3)cs2)cc1 [Example 3-48]
17,140 to 142 °C,CN(Cc1ccccc1)c1ccc(-c2csc(CN(CC(=O)O)Cc3ccc(Cl)cc3)n2)cc1 [Example 3-49]
18,132 to 134 °C,CN(Cc1ccccc1)c1ccc(-c2csc(CN(CC(=O)O)Cc3ccccc3Cl)n2)cc1 [Example 3-50]
19,69 to 72 °C,CN(Cc1ccccc1)c1ccc(-c2csc(CN(CC(=O)O)Cc3ccc(Cl)c(Cl)c3)n2)cc1 [Example 3-51]
20,78 to 83 °C,CN(Cc1ccccc1)c1ccc(-c2csc(CN(CC(=O)O)Cc3cccc4ccccc34)n2)cc1 [Example 3-54]
21,144 to 147 °C,CN(Cc1ccccc1)c1ccc(-c2csc(CN(CC(=O)O)Cc3ccc4ccccc4n3)n2)cc1 [Example 3-55]
